From patent publication US20040054195A1, “Xanthene derivatives” (priority 2003, published 2004)
Where “and” joins values, the source holds several entries; their conditions need not be identical. Equal entries are not always repeated.

Tests used:
[1] = UV absorbance spectrum in pH 10 borate buffer; type: physicochemical; details: 10 μM, inset of FIG. 3
Procedure: FIG. 3. Fluorescence spectra. Curve A: BODIPY FL in pH 10 buffer, 50 nM, excited at 505 nm, excitation and emission slit 2.5 nm; Curve B: fluorescein in pH 10 borate buffer, 50 nM, excited at 488 nm, excitation and emission slit 2.5 nm; Curve C: compound 8 in pH 10 borate buffer, 50 nM, excited at 459 nm, excitation slit 2.5 nm, emission slit 8 nm; Curve D: compound 8 in methanol, 50 nM, excited at 459 nm, excitation slit 2.5 nm, emission slit 8 nm; Inset is UV spectrum of 8 in pH 10 borate buffer, 10 μM, peak absorption wavelength: 459 nm and 483 nm.
In FIG. 3 the fluorescence spectra of fluorescein, a BODPIY FL dye (Molecular Probes Inc., Eugene Oreg.), and xanthamide dye 8 are compared. Fluorescein and BODIPY dyes are popular, and many instruments have been set up for their measurement. Thus it is attractive that xanthamide dye 8 has a similar fluorescence emission relative to that of fluorescein and a typical BODIPY dye. […] This adds to the practicality of 8.

[2] = Photostability study: irradiation with a 200 W soft white bulb, fluorescence of aliquots vs. time; type: physicochemical; details: 50 nM in pH 10 borate buffer, 200 watt soft white bulb at 10 cm, excitation at 459 nm, FIG. 4
Procedure: FIG. 4. Photostability comparison vs. time (hour) of 5 (*), 8 (▪), fluorescein (Δ) and BODIPY FL (♦); concentration 50 nM in pH 10 borate buffer. Excited at 459 nm for 5 and 8, 488 nm for fluorescein, 505 nm for BODIPY FL.
The photostability study was conducted by irradiating a 50 nM pH 10 sample solution of each dye (1, BODIPY-FL, 5 and 8) using a Hotspot lamp (Cheltenham, Pa.) with a 200W soft white bulb (General Electric, Canada), positioned at a distance of 10 cm between the sample and the bulb. The sample solution was cooled by circulating room temperature water. Fluorescence spectra were recorded on aliquots taken as a function of time.

| Structure (SMILES) | absorbance maxima [1] | photostability relative to fluorescein and a typical BODIPY dye [2] |
| --- | --- | --- |
| COc1ccc2c(-c3ccccc3C(=O)N3CCC(C(=O)O)CC3)c3ccc(=O)cc-3oc2c1 [compound 8, 1-[2-(6-Methoxy-3-oxo-3H-xanthen-9-yl)-benzoyl]-piperidine-4-carboxylic acid] | 459 nm and 483 nm | remarkable photostability |
| CN(C)C(=O)c1ccccc1-c1c2ccc(=O)cc-2oc2cc(OCC(=O)O)ccc12 [compound 5, [9-(2-Dimethylcarbamoyl-phenyl)-6-oxo-6H-xanthen-3-yloxy]-acetic acid] |  | very good photostability |
